Measured values from article PMC8913746, “An open-like conformation of the sigma-1 receptor reveals its ligand entry pathway” (Nature Communications, 2022).
Residue numbers refer to the chain shown, from its start. Where “and” joins values, the source holds several entries; their conditions need not be identical. Equal values may be shown once.

Experiments:
xlσ1R-C179/C203 = target: T1, xlσ1R-C179/C203 (Xenopus laevis, UniProt Q6DCU6, L179C/Y203C); experiment: ITC binding of PRE084 to xlσ1R-C179/C203 (disulfide oxidation / re-reduction); details: ITC; for number of available binding sites per protomer (stoichiometry): mean ± SD
T1 construct: The gene encoding the full-length wild-type σ1R from Xenopus laevis; hemagglutinin signal peptide (N); decahistidine (His10) (N); TEV protease recognition site (N); made in house; host or cells: Pichia pastoris GS115
T1 sequence (Q6DCU6 1-221 L179C/Y203C): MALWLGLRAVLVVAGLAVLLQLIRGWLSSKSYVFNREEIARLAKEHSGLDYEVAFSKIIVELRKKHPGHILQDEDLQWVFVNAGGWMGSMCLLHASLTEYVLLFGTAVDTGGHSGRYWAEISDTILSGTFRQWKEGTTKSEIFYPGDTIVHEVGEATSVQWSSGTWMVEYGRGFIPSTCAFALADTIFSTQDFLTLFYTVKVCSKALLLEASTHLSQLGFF

xlσ1R-C179 = target: T2, xlσ1R-C179 (Xenopus laevis, UniProt Q6DCU6, L179C); experiment: ITC binding of PRE084 to xlσ1R-C179 before/after mPEG-Mal-5K modification; details: for C179 stoichiometry, Before modification / number of available binding sites per protomer (stoichiometry) / C179 stoichiometry, After modification: ITC; for number of available binding sites per protomer (stoichiometry): mean ± SD; for C179 stoichiometry, After modification: mPEG-Mal-5K
T2 construct: The gene encoding the full-length wild-type σ1R from Xenopus laevis; hemagglutinin signal peptide (N); decahistidine (His10) (N); TEV protease recognition site (N); made in house; host or cells: Pichia pastoris GS115
T2 sequence (Q6DCU6 1-221 L179C): T1 sequence (Q6DCU6 1-221 L179C/Y203C) with C203Y

xlσ1R-C203 = target: T3, xlσ1R-C203 (Xenopus laevis, UniProt Q6DCU6, Y203C); experiment: ITC binding of PRE084 to xlσ1R-C203 before/after mPEG-Mal-5K modification; details: for number of available binding sites per protomer (stoichiometry): mean ± SD; for C203 stoichiometry, After modification: mPEG-Mal-5K
T3 construct: The gene encoding the full-length wild-type σ1R from Xenopus laevis; hemagglutinin signal peptide (N); decahistidine (His10) (N); TEV protease recognition site (N); made in house; host or cells: Pichia pastoris GS115
T3 sequence (Q6DCU6 1-221 Y203C): T1 sequence (Q6DCU6 1-221 L179C/Y203C) with C179L

[1] = Mean of repeats (source data Fig. 4b)
[2] = individual repeats (source data Fig. 4b)
[3] = Mean of repeats (source data Fig. 4e)
[4] = individual repeats (source data Fig. 4e)
[5] = ITC, individual repeats (source data Fig. 4e)

SMILES: O=C(OCCN1CCOCC1)C1(c2ccccc2)CCCCC1 [PRE084, [2-(morpholin-4-yl)ethyl] 1-phenylcyclohexane-1-carboxylate]
- increase of Kd after oxidation compared to before oxidation (xlσ1R-C179/C203): ~ 9 fold
- C179/C203 stoichiometry, After oxidation (xlσ1R-C179/C203; [1]): 0.1833
- C179/C203 stoichiometry, Before oxidation (xlσ1R-C179/C203; [1]): 0.9178
- C179/C203 stoichiometry, Re-reduction (xlσ1R-C179/C203; [1]): 0.5202
- number of available binding sites per protomer (stoichiometry) (xlσ1R-C179/C203; after oxidation (disulfide formed)): 0.18 ± 0.02
- number of available binding sites per protomer (stoichiometry) (xlσ1R-C179/C203; before oxidation): 0.92 ± 0.01
- C179/C203 stoichiometry, After oxidation (xlσ1R-C179/C203; [2]): 0.179 and 0.210 and 0.161
- C179/C203 stoichiometry, Before oxidation (xlσ1R-C179/C203; [2]): 0.933 and 0.929 and 0.922 and 0.901 and 0.904
- C179/C203 stoichiometry, Re-reduction (xlσ1R-C179/C203; [2]): 0.502 and 0.537 and 0.513 and 0.529
- number of available binding sites per protomer (stoichiometry) (xlσ1R-C179/C203; oxidized sample re-reduced with β-mercaptoethanol): 0.52 ± 0.02
- C179 stoichiometry, Before modification (xlσ1R-C179; [3]): 0.8482
- number of available binding sites per protomer (stoichiometry) (xlσ1R-C179; after mPEG-Mal-5K modification): 0.48 ± 0.07
- number of available binding sites per protomer (stoichiometry) (xlσ1R-C179; before mPEG-Mal-5K modification): 0.85 ± 0.09
- C179 stoichiometry, Before modification (xlσ1R-C179; [4]): 0.787 and 0.943 and 0.756 and 0.907
- C179 stoichiometry, After modification (xlσ1R-C179; [3]): 0.4808
- C179 stoichiometry, After modification (xlσ1R-C179; [4]): 0.399 and 0.462 and 0.576 and 0.486
- blockade percentage (reduction of available binding sites) (xlσ1R-C179; after mPEG-Mal-5K modification): ~ 44%
- number of available binding sites per protomer (stoichiometry) (xlσ1R-C203; ITC, after mPEG-Mal-5K modification): 0.69 ± 0.04
- number of available binding sites per protomer (stoichiometry) (xlσ1R-C203; ITC, before mPEG-Mal-5K modification): 0.87 ± 0.01
- C203 stoichiometry, Before modification (xlσ1R-C203; [5]): 0.883 and 0.859 and 0.873
- C203 stoichiometry, After modification (xlσ1R-C203; ITC, Mean of repeats (source data Fig. 4e)): 0.6895
- C203 stoichiometry, After modification (xlσ1R-C203; [5]): 0.635 and 0.734 and 0.712 and 0.677
- blockade percentage (reduction of available binding sites) (xlσ1R-C203; after mPEG-Mal-5K modification): ~ 21%
